Results reported in the COVID Moonshot data (paper PMC11187573), “Identification of SARS-CoV-2 Mpro inhibitors through deep reinforcement learning for de novo drug design and computational chemistry approaches” (RSC Medicinal Chemistry, 2024).

Columns and labels:
[1] = target: SARS-CoV-2 Main Protease (SARS-CoV-2) (UniProt P0DTD1)
[2] = target: SARS-CoV-2 Main Protease (SARS-CoV-2) (UniProt P0DTD1); remark: listed apart in the source

C=CC(=O)N(c1cc(C(C)(C)C)on1)C(C(=O)NCCc1cccc(F)c1)c1cccnc1 (stereo unspecified)
relative solubility at 20 uM: 0.98
relative solubility at 100 uM: 0.97
IC50 [1]: 10.9 µM
inhibition ([1]; 50.0 µM): 100%
inhibition ([2]; 20.0 µM): 16.7%
inhibition ([2]; 50.0 µM): 31.3%

CC(C(=O)Nc1cnccc1C)=C1CC1
relative solubility at 20 uM: 1
relative solubility at 100 uM: 1
inhibition ([1]; 50.0 µM): 0%
inhibition ([2]; 20.0 µM): 2.11%
inhibition ([2]; 50.0 µM): -8.02%

O=C(Cc1cccc(Cl)c1)Nn1cnc2ccccc21
relative solubility at 20 uM: 1
relative solubility at 100 uM: 1
IC50 [1]: 4.27 µM
inhibition ([1]; 50.0 µM): 45.3%
inhibition ([2]; 20.0 µM): 74.2%
inhibition ([2]; 50.0 µM): 87.7%

C=CC(=O)N(c1ccc(C(C)(C)C)cc1)C(C(=O)NC(C)(C)C)c1cncc(OCC)c1 (stereo unspecified)
relative solubility at 20 uM: 0.99
relative solubility at 100 uM: 0.89
inhibition ([1]; 20.0 µM): -0.816%
inhibition ([1]; 50.0 µM): 15%
inhibition ([2]; 20.0 µM): -1.87%
inhibition ([2]; 50.0 µM): 2.59%

C=CC(=O)N(c1ccc(N(C)C)c(C)c1)C(C(=O)Nc1ccccc1Br)c1cccnc1 (stereo unspecified)
relative solubility at 20 uM: 0.86
relative solubility at 100 uM: 0.79
inhibition ([1]; 20.0 µM): 0%
inhibition ([2]; 20.0 µM): 2.84%
inhibition ([2]; 50.0 µM): 8.13%

O=C(Cc1cccc(Cl)c1)Nn1cnc2ccccc2c1=O
relative solubility at 20 uM: 1
relative solubility at 100 uM: 1
inhibition ([1]; 50.0 µM): 0%
inhibition ([2]; 20.0 µM): 70.9%
inhibition ([2]; 50.0 µM): 87%

COc1ccc2c(c1)C(C(=O)Nc1cncnc1C)CCC2 (stereo unspecified)
relative solubility at 20 uM: 1
relative solubility at 100 uM: 1
inhibition ([1]; 50.0 µM): 2.78%
inhibition ([2]; 20.0 µM): 6.97%
inhibition ([2]; 50.0 µM): -24.1%

Cc1ccc(NC(=O)Cc2cc3cccnc3[nH]2)s1
relative solubility at 20 uM: 1
relative solubility at 100 uM: 0.96
inhibition ([1]; 50.0 µM): 7.42%
inhibition ([2]; 20.0 µM): 23.7%
inhibition ([2]; 50.0 µM): 8.28%

O=C(CNc1c(-c2ccccc2)nc2ccccn12)N/N=C/c1cccc2ccccc12
relative solubility at 20 uM: 0.5
relative solubility at 100 uM: 0.5
inhibition ([1]; 50.0 µM): 7.53%
inhibition ([2]; 20.0 µM): 13.8%
inhibition ([2]; 50.0 µM): 17.8%

C=CC(=O)N(c1ccc(C2(C)CC2)cc1)C(C(=O)Nc1ccc(OC)cc1C)c1cccnc1 (stereo unspecified)
relative solubility at 20 uM: 1
relative solubility at 100 uM: 0.52
inhibition ([1]; 20.0 µM): 0%
inhibition ([1]; 50.0 µM): 0%
inhibition ([2]; 50.0 µM): 6.08%

Cc1cccc(CC2CCN(C(=O)CCl)CC2)c1
relative solubility at 20 uM: 1
relative solubility at 100 uM: 1
IC50 [1]: 4.49 µM
inhibition ([1]; 50.0 µM): 87.1%
inhibition ([2]; 20.0 µM): 62.9%
inhibition ([2]; 50.0 µM): 90.5%

Cc1ccncc1NC(=O)[C@@H]1C[C@H]1CF (stereo in doubt)
relative solubility at 20 uM: 1
relative solubility at 100 uM: 1
inhibition ([1]; 50.0 µM): 3.35%
inhibition ([2]; 20.0 µM): 4.1%
inhibition ([2]; 50.0 µM): 3.57%

O=C(Cn1c(=O)[nH]c2ccccc21)Nc1cccc(Cl)c1
relative solubility at 20 uM: 1
relative solubility at 100 uM: 0.64
inhibition ([1]; 50.0 µM): 0%
inhibition ([2]; 20.0 µM): -4.28%
inhibition ([2]; 50.0 µM): -9.78%

CNCc1c[nH]c2ccc(F)cc12
relative solubility at 20 uM: 0.99
relative solubility at 100 uM: 1
inhibition ([1]; 20.0 µM): 3.09%
inhibition ([1]; 50.0 µM): 16.1%
inhibition ([2]; 50.0 µM): 32.7%

N#Cc1ccc(O)c(NC(=O)Cc2cccnc2)c1
relative solubility at 20 uM: 1
relative solubility at 100 uM: 0.95
inhibition ([1]; 50.0 µM): 0%
inhibition ([2]; 20.0 µM): -15.4%
inhibition ([2]; 50.0 µM): -8.48%

Cc1ccncc1NC(=O)Cc1ccccc1
relative solubility at 20 uM: 1
relative solubility at 100 uM: 1
inhibition ([1]; 20.0 µM): -0.63%
inhibition ([1]; 50.0 µM): 16.1%
inhibition ([2]; 20.0 µM): 8.19%
inhibition ([2]; 50.0 µM): 19.5%

C=CC(=O)N(c1ccc(C(C)C)nc1)C(C(=O)NC(C)(C)C)c1cccnc1 (stereo unspecified)
relative solubility at 20 uM: 1
relative solubility at 100 uM: 0.99
inhibition ([1]; 20.0 µM): 0%
inhibition ([2]; 20.0 µM): 11.7%
inhibition ([2]; 50.0 µM): 11.4%

Cc1cc(CC(=O)Nc2cnccc2C)[nH]n1
relative solubility at 20 uM: 1
relative solubility at 100 uM: 1
inhibition ([1]; 50.0 µM): 4.87%
inhibition ([2]; 20.0 µM): -4.28%
inhibition ([2]; 50.0 µM): 0.404%

C=CC(=O)N(c1ccc(C2(C)CC2)cc1)C(C(=O)Nc1cccc(F)c1C)c1cccnc1 (stereo unspecified)
relative solubility at 20 uM: 1
relative solubility at 100 uM: 1
inhibition ([1]; 20.0 µM): 0%
inhibition ([1]; 50.0 µM): 1.04%
inhibition ([2]; 50.0 µM): 34.7%

O=C(NC1CCCCC1NC(=O)c1ccncc1)c1ccccc1 (stereo unspecified)
relative solubility at 20 uM: 1
relative solubility at 100 uM: 1
inhibition ([1]; 20.0 µM): 0%
inhibition ([1]; 50.0 µM): 0%
inhibition ([2]; 50.0 µM): -22.4%

C=CC(=O)N(c1ccc(C(C)OC)cc1)C(C(=O)NC(C)(C)C)c1cccnc1 (stereo unspecified)
relative solubility at 20 uM: 0.98
relative solubility at 100 uM: 0.86
inhibition ([1]; 20.0 µM): 0%
inhibition ([2]; 20.0 µM): 7.07%
inhibition ([2]; 50.0 µM): 15.9%

CCNc1ncc(C#N)cc1CN1CCN(C(=O)CCl)CC1
relative solubility at 20 uM: 0.98
relative solubility at 100 uM: 0.95
IC50 [1]: 1.64 µM
inhibition ([1]; 50.0 µM): 99.7%
inhibition ([2]; 20.0 µM): 99.7%
inhibition ([2]; 50.0 µM): 102%

Cc1ccncc1NC(=O)CCc1nc2cc(Cl)ccc2o1
relative solubility at 20 uM: 0.99
relative solubility at 100 uM: 1
inhibition ([1]; 50.0 µM): 0%
inhibition ([2]; 20.0 µM): 10.4%
inhibition ([2]; 50.0 µM): 13.1%

CCc1ccccc1Nc1nc(N)nc(CSc2nnc3ccccn23)n1
relative solubility at 20 uM: 0.99
relative solubility at 100 uM: 0.95
inhibition ([1]; 20.0 µM): -0.805%
inhibition ([1]; 50.0 µM): 3.37%
inhibition ([2]; 20.0 µM): 20.9%
inhibition ([2]; 50.0 µM): 46.6%

Cc1ccncc1NC(=O)CCNC(=O)c1ccccc1F
relative solubility at 20 uM: 1
relative solubility at 100 uM: 1
inhibition ([1]; 20.0 µM): 0%
inhibition ([1]; 50.0 µM): 0%
inhibition ([2]; 50.0 µM): -15.8%

NS(=O)(=O)c1ccc(N2CCC(N3CCCCCC3)CC2)cc1
relative solubility at 20 uM: 1
relative solubility at 100 uM: 1
IC50 [1]: 15.8 µM
inhibition ([1]; 50.0 µM): 100%
inhibition ([2]; 20.0 µM): -1.25%
inhibition ([2]; 50.0 µM): 0.117%

O=C(NCc1cccc(C(=O)N2CCOCC2)c1)c1cnc2c(c1)c(=O)[nH]c(=O)n2Cc1ccccc1
relative solubility at 20 uM: 0.99
relative solubility at 100 uM: 0.9
inhibition ([1]; 50.0 µM): 0%
inhibition ([2]; 20.0 µM): 2.69%
inhibition ([2]; 50.0 µM): -3.76%

COC(=O)C(c1ccccc1Cl)N1CCc2sccc2C1 (stereo unspecified)
relative solubility at 20 uM: 0.97
relative solubility at 100 uM: 0.79
inhibition ([1]; 50.0 µM): 0%
inhibition ([2]; 20.0 µM): -3.49%
inhibition ([2]; 50.0 µM): 4.1%

O=C(Cc1cccc(Cl)c1)Nc1cnccn1
relative solubility at 20 uM: 1.01
relative solubility at 100 uM: 1
inhibition ([1]; 50.0 µM): 0%
inhibition ([2]; 20.0 µM): 3.71%
inhibition ([2]; 50.0 µM): 13.3%

COC1CCN(c2ccc(S(N)(=O)=O)cc2)CC1
relative solubility at 20 uM: 1
relative solubility at 100 uM: 1
inhibition ([1]; 20.0 µM): 29.7%
inhibition ([1]; 50.0 µM): 35.4%
inhibition ([2]; 20.0 µM): 2.98%
inhibition ([2]; 50.0 µM): 6.82%

CC(C)(Cn1c(C2CCC(=O)N2)nnc1N1CCCC(C(N)=O)C1)c1ccccc1F (stereo unspecified)
relative solubility at 20 uM: 1
relative solubility at 100 uM: 0.99
inhibition ([1]; 50.0 µM): 29.4%
inhibition ([2]; 20.0 µM): -2.8%
inhibition ([2]; 50.0 µM): 6.51%

C=CC(=O)N(c1ccc2ncsc2c1)C(C(=O)Nc1ccc(OC)cc1)c1cccnc1 (stereo unspecified)
relative solubility at 20 uM: 0.92
relative solubility at 100 uM: 0.87
inhibition ([1]; 20.0 µM): 0%
inhibition ([2]; 20.0 µM): 4.02%
inhibition ([2]; 50.0 µM): 15.4%

NS(=O)(=O)c1ccc(N2CCC(c3ccsc3)CC2)cc1
relative solubility at 20 uM: 0.98
relative solubility at 100 uM: 0.76
inhibition ([1]; 20.0 µM): 37.4%
inhibition ([1]; 50.0 µM): 42%
inhibition ([2]; 20.0 µM): 7.4%
inhibition ([2]; 50.0 µM): 17.1%

O=C1Nc2cc(Br)ccc2C1=O
relative solubility at 20 uM: 1
relative solubility at 100 uM: 1.01
inhibition ([1]; 50.0 µM): 23.8%
inhibition ([2]; 20.0 µM): -5.86%
inhibition ([2]; 50.0 µM): -4.62%

CN1CCN(C(=O)Cc2c[nH]c3ncccc23)CC1C(=O)NCCc1c[nH]c2ccc(F)cc12 (stereo unspecified)
relative solubility at 20 uM: 0.98
relative solubility at 100 uM: 0.98
inhibition ([1]; 50.0 µM): -15%
inhibition ([2]; 20.0 µM): -9.55%
inhibition ([2]; 50.0 µM): -21.5%

N#Cc1cccc(CN2CCN(C(=O)CCl)CC2)c1
relative solubility at 20 uM: 1.01
relative solubility at 100 uM: 0.99
IC50 [1]: 12.2 µM
inhibition ([1]; 20.0 µM): 64.3%
inhibition ([2]; 20.0 µM): 53.4%
inhibition ([2]; 50.0 µM): 85.2%

O=C1C(=O)N(Cc2ccccc2)c2cc(Br)ccc21
relative solubility at 20 uM: 0.99
relative solubility at 100 uM: 0.59
inhibition ([1]; 50.0 µM): 0%
inhibition ([2]; 20.0 µM): 0.852%
inhibition ([2]; 50.0 µM): -0.164%

O=C(Cc1cccnc1)Nc1cccc(OC2CC(=O)N2)c1 (stereo unspecified)
relative solubility at 20 uM: 0.97
relative solubility at 100 uM: 0.99
inhibition ([1]; 50.0 µM): 26.4%
inhibition ([2]; 20.0 µM): 39.6%
inhibition ([2]; 50.0 µM): 71.8%

O=C(c1cc(=O)[nH]c2ccc(F)cc12)N1CCN(S(=O)(=O)c2ccccc2Cl)CC1
relative solubility at 20 uM: 0.98
relative solubility at 100 uM: 0.93
inhibition ([1]; 50.0 µM): 39.8%
inhibition ([2]; 20.0 µM): 19.5%
inhibition ([2]; 50.0 µM): 35.1%
